Where two headings read alike, the source gives them in different places. Each block holds one compound with its values, some of them ahead of it.
Experiments:
[1] = background statement; cited from earlier work
gram positive = conditions: background statement; cited from earlier work
[2] = background statement; cited from earlier work; remark: listed apart in the source
[3] = Solubility (saturated solution in water at 37° C.); format: physicochemical; conditions: for solubility: water, 37° C.
Method: For example, the compound forms a saturated solution in water at 37° C. according to the following table: […]

[4] = Titration (66% N,N-dimethylformamide/water); format: physicochemical; conditions: 66% dmf/water
Excerpt: Titration (66% N,N-dimethylformamide/water) pKa 5.5, 7.5, 11.2.

[5] = Stability of the crystal form; format: physicochemical; conditions: prolonged periods of time
[6] = Absorption following oral administration; format: in vivo
Pharmacokinetics = format: in vivo; conditions: in words; tetrahydrate, oral
[7] = tested on: Peptostreptococcus anaerobius; experiment: Activity against anaerobic cocci
Peptostrept. intermedius = experiment: Activity against anaerobic cocci

Compound: CC1=C(C(=O)O)N2C(=O)C(NC(=O)[C@H](N)c3ccc4ccccc4c3)C2SC1 (stereo partly drawn) [7-(D-2-Naphthylglycylamido)-3-methyl-3-cephem-4-carboxylic acid]
pharmacokinetics [1]: favorable pharmacokinetics | gram positive activity (gram positive): excellent gram positive activity | orally active antibiotic [2]: potent orally active antibiotic

solubility in water ([3]; in words): only minimally soluble in water | solubility ([3]; pH 1.2): 8600 µg/mL | solubility ([3]; pH 2.0): 1700 µg/mL | solubility ([3]; pH 3.0): 200 µg/mL | solubility ([3]; pH 4.0): 200 µg/mL | solubility ([3]; pH 5.0): 200 µg/mL | solubility ([3]; pH 6.0): 300 µg/mL | solubility ([3]; pH 7.0): 800 µg/mL | solubility ([3]; pH 7.5): 1200 µg/mL | solubility ([3]; pH 8.0): 4100 µg/mL | solubility ([3]; pH 8.5): 7500 µg/mL | pKa ([4]; first value): 5.5 | pKa ([4]; second value): 7.5 | pKa ([4]; third value): 11.2 | pharmacokinetics (Pharmacokinetics): favorable pharmacokinetics
Compound: CC1=C(C(=O)O)N2C(=O)C(NC(=O)[C@H](N)c3ccc4ccccc4c3)C2SC1 (stereo partly drawn) [7-(D-2-naphthylglycylamido)-3-methyl-3-cephem-4-carboxylic acid tetrahydrate]
stability [5]: very stable for prolonged periods of time | absorption following oral administration [6]: very well absorbed following oral administration | effective against anaerobic cocci [7]: effective | effective against anaerobic cocci (Peptostrept. intermedius): effective

Source: patent publication US4474780A, “Crystalline cephalosporin” (Eli Lilly and Company, priority 1983, dated 1984)
